≈ marks a conversion by molar mass, not a printed value.
Key:
[1] = tested on: Mycobacterium tuberculosis; experiment: Antitubercular activity against Mycobacterium tuberculosis H37Rv measured after 7 days under aerobic condition by alamar blue assay; assay type: functional; details: 168 h
[2] = tested on: Mycobacterium tuberculosis; experiment: Antitubercular activity against Mycobacterium tuberculosis H37Rv ATCC 27294 incubated for 10 days under low oxygen condition followed by second incubation under aerobic condition for 28 hrs by LORA; assay type: functional
[3] = tested on: Vero; experiment: Cytotoxicity against African green monkey Vero cells after 72 hrs by MTS/PMS assay; assay type: cell-based; details: Chlorocebus sabaeus

`Cc1cc(CO[C@@H]2COc3nc([N+](=O)[O-])cn3C2)ccc1OC(F)(F)F` showed an MIC [1] of 0.063 µM (≈ 0.0235 µg/mL), an MIC [2] of 1 µM (≈ 0.373 µg/mL) and an IC50 [3] of over 128 µM.
For `O=[N+]([O-])c1cnc2n1C[C@H](OCc1ccc(OC(F)(F)F)cc1)CO2`, the MIC [1] was over 128 µM, the MIC [2] was over 128 µM and the IC50 [3] was over 128 µM.
Work on `O=[N+]([O-])c1cnc2n1C[C@H](O)CO2` yielded an MIC [1] of over 128 µM, an MIC [2] of over 128 µM and an IC50 [3] of over 128 µM.
In the case of `COc1nc2ccc(Br)cc2cc1[C@@H](c1ccccc1)[C@@](O)(CCN(C)C)c1cccc2ccccc12` [BEDAQUILINE], the MIC [1] is reported as 0.07 µM (≈ 0.0389 µg/mL), the MIC [2] is reported as 0.11 µM (≈ 0.0611 µg/mL) and the IC50 [3] is reported as over 10 µM.
`NNC(=O)c1ccncc1` [ISONIAZID] showed an MIC [1] of 0.34 µM (≈ 0.0466 µg/mL) and an MIC [2] of over 128 µM.
`CC(=O)NC[C@H]1CN(c2ccc(N3CCOCC3)c(F)c2)C(=O)O1` [LINEZOLID] was tested, and the MIC [1] was 2.9 µM (≈ 0.978 µg/mL) and the MIC [2] was 2.8 µM (≈ 0.945 µg/mL).
`Cc1ncc([N+](=O)[O-])n1CCO` [METRONIDAZOLE] was tested, and the MIC [1] was over 512 µM and the MIC [2] was 79 µM (≈ 13.5 µg/mL).
Work on `COc1c(N2C[C@@H]3CCCN[C@@H]3C2)c(F)cc2c(=O)c(C(=O)O)cn(C3CC3)c12` [MOXIFLOXACIN] yielded an MIC [1] of 0.42 µM (≈ 0.169 µg/mL) and an MIC [2] of over 128 µM.
For `CO[C@H]1/C=C/O[C@@]2(C)Oc3c(C)c(O)c4c(O)c(c(/C=N/N5CCN(C)CC5)c(O)c4c3C2=O)NC(=O)/C(C)=C\C=C\[C@H](C)[C@H](O)[C@@H](C)[C@@H](O)[C@@H](C)[C@H](OC(C)=O)[C@@H]1C` [RIFAMPIN], the MIC [1] was 0.049 µM (≈ 0.0403 µg/mL), the MIC [2] was 0.64 µM (≈ 0.527 µg/mL) and the IC50 [3] was over 100 µM.

From ChEMBL document CHEMBL4130595, “Antitubercular Nitroimidazoles Revisited: Synthesis and Activity of the Authentic 3-Nitro Isomer of Pretomanid” (ACS Med Chem Lett, 2017)
